Values joined by “and” are separate entries in the source; they are usually repeats but may differ in a detail not shown here. Identical values can stand only once.
Tests used:
FAK [1] = molecular target: T1, FAK (Homo sapiens, UniProt Q05397); experiment: Cell-based capture ELISA for inhibition of FAK autophosphorylation [pY397] in U87MG cells
FAK [2] = molecular target: T1, FAK; experiment: Cell-based capture ELISA for inhibition of FAK autophosphorylation [pY397] in MiaPaCa2 cells; conditions: MIA-PaCa2 cells, + 50% mouse plasma (Table 3); read-out: Mean FAK Cell Mechanistic IC50 + 50% mP MIA-PaCa2
Experimental: Cell-Based Assays for Inhibition of FAK Autophosphorylation: MiaPaCa2 and U87MG
ELISA kit from Invitrogen (KHO0441).
Reagents Provided in Biosource FAK [pY397]
The cells were then suspended in cell assay medium.

FAK [3] = molecular target: T1, FAK; experiment: biochemical
[4] = U87MG FAK Cell Mech IC50 +hP, + human plasma
[5] = U87MG FAK Cell Mech IC50 +mP, + mouse plasma

T1 sequence (Q05397 whole entry): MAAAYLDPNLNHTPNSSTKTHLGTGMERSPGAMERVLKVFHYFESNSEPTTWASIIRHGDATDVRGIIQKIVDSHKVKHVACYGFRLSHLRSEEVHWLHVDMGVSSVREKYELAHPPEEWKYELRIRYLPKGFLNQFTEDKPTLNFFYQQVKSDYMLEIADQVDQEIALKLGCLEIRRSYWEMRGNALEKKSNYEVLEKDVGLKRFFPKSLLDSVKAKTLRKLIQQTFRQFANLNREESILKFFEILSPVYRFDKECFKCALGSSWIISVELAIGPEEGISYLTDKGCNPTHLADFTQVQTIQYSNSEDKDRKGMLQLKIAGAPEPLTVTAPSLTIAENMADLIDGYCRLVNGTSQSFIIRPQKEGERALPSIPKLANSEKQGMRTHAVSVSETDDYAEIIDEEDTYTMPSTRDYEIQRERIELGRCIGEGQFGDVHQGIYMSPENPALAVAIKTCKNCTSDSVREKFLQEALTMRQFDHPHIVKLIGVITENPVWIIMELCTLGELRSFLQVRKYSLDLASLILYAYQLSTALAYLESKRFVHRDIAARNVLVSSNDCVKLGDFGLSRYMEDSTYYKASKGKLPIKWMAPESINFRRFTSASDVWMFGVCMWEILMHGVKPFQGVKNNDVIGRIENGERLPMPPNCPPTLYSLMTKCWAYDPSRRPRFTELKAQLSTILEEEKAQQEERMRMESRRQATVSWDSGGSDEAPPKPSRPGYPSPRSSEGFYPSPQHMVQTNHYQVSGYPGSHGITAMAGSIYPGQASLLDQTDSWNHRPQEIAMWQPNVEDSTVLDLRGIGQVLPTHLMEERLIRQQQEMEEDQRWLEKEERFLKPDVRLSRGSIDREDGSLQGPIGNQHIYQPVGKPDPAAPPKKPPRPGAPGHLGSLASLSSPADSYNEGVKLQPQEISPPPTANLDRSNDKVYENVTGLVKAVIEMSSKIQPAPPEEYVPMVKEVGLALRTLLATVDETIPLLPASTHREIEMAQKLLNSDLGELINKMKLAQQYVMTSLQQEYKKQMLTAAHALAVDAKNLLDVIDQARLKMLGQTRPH

Row | SMILES | IC50 (FAK [1]; [4]) [nM] | IC50 (FAK [1]; [5]) | IC50 (FAK [2]) [nM] | IC50 (FAK [3]) [nM] | IC50 (FAK [1]; Mean FAK Cell Mechanistic IC50 + 50% mP U87MG, + 50% mouse plasma) [nM]
1 | COc1cc(P(C)(C)=O)ccc1Nc1ncc(Cl)c(Nc2ccccc2C(=O)NC(C)C)n1 [Cpd A, reference compound] | > 4000 | 3.69 µM and > 4 µM (3×) | – | – | –
2 | COc1cc(P(C)(C)=O)ccc1Nc1ncc(Cl)c(Nc2cccc3c2C(=O)N(C)C3)n1 [Cpd B, reference compound] | > 4000 | 257 nM and 540 nM | – | – | –
3 | CCOP(=O)(Cc1ccc(Nc2ncc(C(F)(F)F)c(Nc3ccc(N4CCOCC4)c4c3C(=O)N(C)C4)n2)cc1)OCC [Example 208, Diethyl (4-{[4-{[2-methyl-7-(morpholin-4-yl)-3-oxo-2,3-dihydro-1H-isoindol-4-yl]amino}-5-(trifluoromethyl)pyrimidin-2-yl]amino}benzyl)phosphonate] | – | – | < 1000 | < 1000 | –
4 | CCOP(=O)(Cc1ccc(Nc2ncc(C(F)(F)F)c(Nc3ccc(OC)c4c3C(=O)N(C)C4)n2)c(OC)c1)OCC [Example 209, Diethyl [3-methoxy-4-({4-[(7-methoxy-2-methyl-3-oxo-2,3-dihydro-1H-isoindol-4-yl)amino]-5-(trifluoromethyl)pyrimidin-2-yl}amino)benzyl]phosphonate] | – | – | < 1000 | < 1000 | –
5 | COCCOP(=O)(Cc1ccc(Nc2ncc(C(F)(F)F)c(Nc3ccc([C@H]4CC[C@H](O)CC4)c4c3C(=O)N(C)C4)n2)c(OC)c1)OCCOC [Example 217, Bis(2-methoxyethyl) (4-{[4-{[7-(trans-4-hydroxycyclohexyl)-2-methyl-3-oxo-2,3-dihydro-1H-isoindol-4-yl]amino}-5-(trifluoromethyl)pyrimidin-2-yl]amino}-3-methoxybenzyl)phosphonate] | – | – | < 1000 | < 1000 | –
6 | COCCOP(=O)(Cc1ccc(Nc2ncc(C(F)(F)F)c(Nc3cccc4c3C(=O)N(C)C4)n2)c(OC)c1)OCCOC [Example 219, Bis(2-methoxyethyl) [3-methoxy-4-({4-[(2-methyl-3-oxo-2,3-dihydro-1H-isoindol-4-yl)amino]-5-(trifluoromethyl)pyrimidin-2-yl}amino)benzyl]phosphonate] | – | – | < 1000 | < 1000 | –
7 | CNC(=O)c1ccccc1Nc1nc(Nc2ccc(CP(=O)(OCCOC)OCCOC)cc2OC)ncc1C(F)(F)F [Example 221, Bis(2-methoxyethyl) (3-methoxy-4-{[4-{[2-(methylcarbamoyl)phenyl]amino}-5-(trifluoromethyl)pyrimidin-2-yl]amino}benzyl)phosphonate] | – | – | < 1000 | < 1000 | –
8 | CCOP(=O)(Cc1ccc(Nc2ncc(C(F)(F)F)c(Nc3ccc(N4CCN(C(C)=O)CC4)c4c3C(=O)N(C)C4)n2)c(OC)c1)OCC [Example 223, Diethyl (4-{[4-{[7-(4-acetylpiperazin-1-yl)-2-methyl-3-oxo-2,3-dihydro-1H-isoindol-4-yl]amino}-5-(trifluoromethyl)pyrimidin-2-yl]amino}-3-methoxybenzyl)phosphonate] | – | – | < 1000 | < 1000 | –
9 | CCOP(=O)(Cc1ccc(Nc2ncc(C(F)(F)F)c(Nc3ccc(N4CC(O)C4)c4c3C(=O)N(C)C4)n2)c(OC)c1)OCC [Example 229, Diethyl (4-{[4-{[7-(3-hydroxyazetidin-1-yl)-2-methyl-3-oxo-2,3-dihydro-1H-isoindol-4-yl]amino}-5-(trifluoromethyl)pyrimidin-2-yl]amino}-3-methoxybenzyl)phosphonate] | – | – | < 1000 | < 1000 | –
10 | CCOP(=O)(Cc1ccc(Nc2ncc(C(F)(F)F)c(Nc3ccc([C@H]4CC[C@H](O)CC4)nc3C(=O)NC)n2)c(OC)c1)OCC [Example 232, Diethyl (4-{[4-{[6-(trans-4-hydroxycyclohexyl)-2-(methylcarbamoyl)pyridin-3-yl]amino}-5-(trifluoromethyl)pyrimidin-2-yl]amino}-3-methoxybenzyl)phosphonate] | – | – | < 1000 | < 1000 | –
11 | CCOP(=O)(Cc1ccc(Nc2ncc(C(F)(F)F)c(Nc3ccc(C4CCC(N(C)C)CC4)c4c3C(=O)N(C)C4)n2)c(OC)c1)OCC (stereo not drawn) [Example 233, Diethyl (4-{[4-({7-[4-(dimethylamino)cyclohexyl]-2-methyl-3-oxo-2,3-dihydro-1H-isoindol-4-yl}amino)-5-(trifluoromethyl)pyrimidin-2-yl]amino}-3-methoxybenzyl)phosphonate] | – | – | < 1000 | < 1000 | –
12 | CCOP(=O)(Cc1ccc(Nc2ncc(C(F)(F)F)c(Nc3ccc([C@H]4CC[C@H](N5CCN(C(C)=O)CC5)CC4)c4c3C(=O)N(C)C4)n2)c(OC)c1)OCC [Example 238, diethyl (4-{[4-({7-[trans-4-(4-acetylpiperazin-1-yl)cyclohexyl]-2-methyl-3-oxo-2,3-dihydro-1H-isoindol-4-yl}amino)-5-(trifluoromethyl)pyrimidin-2-yl]amino}-3-methoxybenzyl)phosphonate] | – | – | < 1000 | < 1000 | –
13 | CCOP(=O)(Cc1ccc(Nc2ncc(C(F)(F)F)c(Nc3ccc(C4CCC(N5CCCC5)CC4)c4c3C(=O)N(C)C4)n2)c(OC)c1)OCC (stereo not drawn) [Example 242] | – | – | < 1000 | < 1000 | –
14 | CCOP(=O)(Cc1ccc(Nc2ncc(C(F)(F)F)c(Nc3ccc([C@@H]4C[C@@H](O)[C@@H](O)C4)c4c3C(=O)N(C)C4)n2)c(OC)c1)OCC [Example 243, Diethyl (4-{[4-({7-[-3,4-dihydroxycyclopentyl]-2-methyl-3-oxo-2,3-dihydro-1H-isoindol-4-yl}amino)-5-(trifluoromethyl)pyrimidin-2-yl]amino}-3-methoxybenzyl) phosphonate] | – | – | < 1000 | < 1000 | –
15 | CCOc1cc(CP(=O)(OCC)OCC)ccc1Nc1ncc(C(F)(F)F)c(Nc2ccc([C@H]3CC[C@@H](C(=O)OCC)CC3)c3c2C(=O)N(C)C3)n1 [Example 244, Ethyl cis-4-(7-{[2-({4-[(diethoxyphosphoryl)methyl]-2-ethoxyphenyl}amino)-5-(trifluoromethyl)pyrimidin-4-yl]amino}-2-methyl-1-oxo-2,3-dihydro-1H-isoindol-4-yl)cyclohexanecarboxylate] | – | – | 1000 to 10000 | < 1000 | –
16 | CCOc1cc(CP(=O)(OCC)OCC)ccc1Nc1ncc(C(F)(F)F)c(Nc2ccc([C@H]3CC[C@H](C(=O)OCC)CC3)c3c2C(=O)N(C)C3)n1 [Example 245, Ethyl trans-4-(7-{[2-({4-[(diethoxyphosphoryl)methyl]-2-ethoxyphenyl}amino)-5-(trifluoromethyl)pyrimidin-4-yl]amino}-2-methyl-1-oxo-2,3-dihydro-1H-isoindol-4-yl)cyclohexanecarboxylate] | – | – | 1000 to 10000 | < 1000 | –
17 | CCOP(=O)(Cc1ccc(Nc2ncc(C(F)(F)F)c(Nc3ccc(C4CCNCC4)c4c3C(=O)N(C)C4)n2)cc1)OCC [Example 247, Diethyl (4-{[4-{[2-methyl-3-oxo-7-(piperidin-4-yl)-2,3-dihydro-1H-isoindol-4-yl]amino}-5-(trifluoromethyl)pyrimidin-2-yl]amino}benzyl)phosphonate] | – | – | < 1000 | < 1000 | –
18 | CCOP(=O)(Cc1ccc(Nc2ncc(Cl)c(Nc3ccc([C@H]4CC[C@H](O)CC4)c4c3C(=O)N(C)C4)n2)c(OC)c1)OCC [Example 250, Diethyl {4-[(5-chloro-4-{[7-(trans-4-hydroxycyclohexyl)-2-methyl-3-oxo-2,3-dihydro-1H-isoindol-4-yl]amino}pyrimidin-2-yl)amino]-3-methoxybenzyl}phosphonate] | – | – | < 1000 | < 1000 | –
19 | CCOP(=O)(Cc1ccc(Nc2ncc(C(F)(F)F)c(Nc3ccc(N4CCN(CC(=O)O)CC4)c4c3C(=O)N(C)C4)n2)cc1)OCC [Example 251, [4-(7-{[2-({4-[(Diethoxyphosphoryl)methyl]phenyl}amino)-5-(trifluoromethyl)pyrimidin-4-yl]amino}-2-methyl-1-oxo-2,3-dihydro-1H-isoindol-4-yl)piperazin-1-yl]acetic acid] | – | – | < 1000 | < 1000 | –
20 | CCOP(=O)(Cc1ccc(Nc2ncc(C(F)(F)F)c(Nc3ccc(C4CCN(C)CC4)c4c3C(=O)N(C)C4)n2)cc1)OCC [Example 253, Diethyl (4-{[4-{[2-methyl-7-(1-methylpiperidin-4-yl)-3-oxo-2,3-dihydro-1H-isoindol-4-yl]amino}-5-(trifluoromethyl)pyrimidin-2-yl]amino}benzyl)phosphonate] | – | – | < 1000 | < 1000 | –
21 | CCOc1cc(CP(=O)(OCC)OCC)ccc1Nc1ncc(C(F)(F)F)c(Nc2ccc([C@H]3CC[C@@H](C(=O)O)CC3)c3c2C(=O)N(C)C3)n1 [Example 257, cis-4-(7-{[2-({4-[(Diethoxyphosphoryl)methyl]-2-ethoxyphenyl}amino)-5-(trifluoromethyl)pyrimidin-4-yl]amino}-2-methyl-1-oxo-2,3-dihydro-1H-isoindol-4-yl)cyclohexanecarboxylic acid] | – | – | < 1000 | < 1000 | –
22 | CCOc1cc(CP(=O)(OCC)OCC)ccc1Nc1ncc(C(F)(F)F)c(Nc2ccc([C@H]3CC[C@H](C(=O)O)CC3)c3c2C(=O)N(C)C3)n1 [Example 258, Trans-4-(7-{[2-({4-[(diethoxyphosphoryl)methyl]-2-ethoxyphenyl}amino)-5-(trifluoromethyl)pyrimidin-4-yl]amino}-2-methyl-1-oxo-2,3-dihydro-1H-isoindol-4-yl)cyclohexanecarboxylic acid] | – | – | < 1000 | < 1000 | –
23 | CCOP(=O)(Cc1ccc(Nc2ncc(C(F)(F)F)c(Nc3ccccc3C(=O)O)n2)c(OC)c1)OCC [Example 290, 2-{[2-({4-[(Diethoxyphosphoryl)methyl]-2-methoxyphenyl}amino)-5-(trifluoromethyl)pyrimidin-4-yl]amino}benzoic acid] | – | – | – | – | 1000 to 10000

— patent US9096624B2 (OSI Pharmaceuticals, LLC, priority 2009, dated 2015)
